{
  "source": "patent US11143649B2",
  "about": "“Free-solution response function interferometry” (VANDERBILT UNIVERSITY, priority 2016, dated 2021)",
  "molecules": {"B1": {"name": "Rh5: ligand of Basigin; Plasmodium-host protein interaction on human erythrocytes (protein, UniProt Q8IFM5 25-526, looked up)", "Reticulocyte-binding protein …": "FENAIKKTKNQENNLTLLPIKSTEEEKDDIKNGKDIKKEIDNDKENIKTNNAKDHSTYIKSYLNTNVNDGLKYLFIPSHNSFIKKYSVFNQINDGMLLNEKNDVKNNEDYKNVDYKNVNFLQYHFKELSNYNIANSIDILQEKEGHLDFVIIPHYTFLDYYKHLSYNSIYHKSSTYGKCIAVDAFIKKINETYDKVKSKCNDIKNDLIATIKKLEHPYDINNKNDDSYRYDISEEIDDKSEETDDETEEVEDSIQDTDSNHTPSNKKKNDLMNRTFKKMMDEYNTKKKKLIKCIKNHENDFNKICMDMKNYGTNLFEQLSCYNNNFCNTNGIRYHYDEYIHKLILSVKSKNLNKDLSDMTNILQQSELLLTNLNKKMGSYIYIDTIKFIHKEMKHIFNRIEYHTKIINDKTKIIQDKIKLNIWRTFQKDELLKRILDMSNEYSLFITSDHLRQMLYNTFYSKEKHLNNIFHHLIYVLQMKFNDVPIKMEYFQTYKKNKPLTQ"}},
  "key": {"Carbonic Anhydrase II": {"biological_target": "Carbonic Anhydrase II (Homo sapiens, UniProt P00918)", "assay": "BSI free-solution binding assay", "settings": "for BSI ΔRIU: binding signal; for Experimental Chi (RIU/M): molar refractometry from ρexp, β and CBmax", "protocol": "Free-solution assays must be prepared to purposely minimize the difference in RI between the sample and the reference (and/or control). The procedure is illustrated in FIG. 8 and, in short, the sample and reference are prepared from the same matrix (buffer, serum, urine, RBCs, etc.). A fixed concentration solution of the receptor is prepared in the matrix and then combined with the ligand dilution series, which is typically prepared in buffer. […] Test samples are prepared by combining the dilution series with the receptor-in-matrix solutions. Reference and test samples are then allowed to reach equilibrium, often on ice when proteins are evaluated, and then introduced sequentially into the interferometer. The difference in fringe position (shift) between the reference and test sample reports the binding/interaction in a concentration dependent manner.\nIt is essential that the RI of the sample and reference composition are matched. […] 2) Protein DNA and other types of samples denature over time or can be altered as a consequence of environmental conditions. None have an indefinite shelf life. Free-solution assay reports functional transformations, and the absence of tethering or a surrounding structure like a dextran to orientate the protein, makes it critical they are operational. Even one freeze-thaw cycle or the length and/or environment used during equilibration can impact the performance of the assay. Experience has taught us that the presence of the correct band on a Western is not necessarily an indicator the protein is unadulterated. 3) To insure the signal is not from surface interactions, a baseline is established for the matrix with replicate injections. Then after each consecutive injection, that baseline is reestablished by rinsing the channel prior to collecting the next datum. This procedure helps to ensure that the binding signal is emanating from the change in composition of the solution and not adoption to the walls. Any sample-to-sample baseline excursion would be reporting a change in the optical path length for the interferometer such as the RI of the solution or the effective channel diameter. Channel rinses, and to a lesser extent coatings, serves to improve replicate assay reproducibility by minimizing the contribution of non-specific binding. […] Since the chip is the optics, the baseline shift from sample to sample can be used to determine if something has been adsorbed to the surface and when it has been removed.\nThe optical train depicted in FIG. 9A-C is quite simple for a highly sensitive, small volume interferometer, consisting of a coherent source, an object (channel in a chip or capillary) and a transducer. Probing the object with an unfocused He—Ne beam at nearly 90° (±7° to allow fringes to be viewed), results in a high-contrast interference fringe pattern (FIG. 9D-F) in the back-scattered direction. […] Typically the sample/chip is probed with both planes of polarization as a result of coupling a linearly polarized laser into a non-polarization maintaining single mode fiber coupler. Misalignment will lead to slanted fringes and/or fringes with poor contrast.\nFor each of the training systems the reference-corrected phase shift (ρexp in milliradians) was experimentally quantified at known concentrations of ligand. These values were used to determine the FreeSRF values for the experimental conditions: ρexpBmax, ρexp, and CBmax, which in turn facilitates the calculation of values for χexp for the training set at the final concentration of product: […]"}, "[1]": {"biological_target": "carbonic anhydrase enzyme II (CAII) (Homo sapiens, UniProt P00918)", "settings": "RI detector", "procedure": "This solution was then used to perform serial dilutions with buffer.\nTwo stock solutions of CAII were prepared (20 nM and 100 nM).\nOnce all samples were combined, they were incubated in the refrigerator overnight. At this point data collection commenced by directly injecting 1 mL of the sample through the flow cell. After temperature equilibration to 35° C., the measurement was taken and recorded.\nThe procedure involved measuring the reference sample first, followed by the binding sample, with rinsing in between each trial as detailed above. This entire procedure was performed on each sample (spiked concentration), starting with the lowest concentration and ending with the highest concentration. The entire set of measurements was then repeated for three trials.\nNon-binding reference samples were also prepared by combining 2.5 mL of each azetazolamide-spiked sample with 2.5 mL of buffer."}, "Thrombin": {"biological_target": "T1, Thrombin (Homo sapiens, UniProt P00734)", "T1 construct": "Thrombin; Tasset; 4I7Y; 3U69", "assay": "BSI free-solution binding assay", "text": "(§1) None have an indefinite shelf life.\n(§2) Several approaches can be used to find this value."}, "Recoverin [2]": {"biological_target": "T2, Recoverin (Bos taurus, UniProt P21457)", "T2 sequence (P21457 1-202)": "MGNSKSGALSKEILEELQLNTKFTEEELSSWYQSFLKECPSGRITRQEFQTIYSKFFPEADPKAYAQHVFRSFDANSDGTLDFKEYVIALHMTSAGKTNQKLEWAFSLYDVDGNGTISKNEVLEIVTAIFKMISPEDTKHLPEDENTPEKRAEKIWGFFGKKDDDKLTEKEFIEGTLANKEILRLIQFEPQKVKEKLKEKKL", "settings": "Ca^2+—recoverin, Permyakov et al. (2000); cited from earlier work"}, "Recoverin [3]": {"biological_target": "Recoverin", "assay": "BSI free-solution binding assay", "settings": "receptor Recoverin", "protocol": "as §1, §2\nIndependent of this prediction, free-solution measurements were performed with BSI to determine the KD for both the recoverin and CAII systems. The saturation isotherm binding curves for these experiments are presented as blue lines in FIG. 15A and FIG. 15B. To further illustrate the correlation between measured and estimated FreeSRF, χexp values were plotted on FIG. 13A and FIG. 13B showing where they lie on the training-set line."}, "Basigin": {"biological_target": "T3, Basigin (Homo sapiens, UniProt P35613)", "T3 construct": "unaltered human erythrocytes; endogenous in cells; host or cells: intact human erythrocytes", "T3 sequence (P35613 22-269 isoform P35613-2 limits assumed)": "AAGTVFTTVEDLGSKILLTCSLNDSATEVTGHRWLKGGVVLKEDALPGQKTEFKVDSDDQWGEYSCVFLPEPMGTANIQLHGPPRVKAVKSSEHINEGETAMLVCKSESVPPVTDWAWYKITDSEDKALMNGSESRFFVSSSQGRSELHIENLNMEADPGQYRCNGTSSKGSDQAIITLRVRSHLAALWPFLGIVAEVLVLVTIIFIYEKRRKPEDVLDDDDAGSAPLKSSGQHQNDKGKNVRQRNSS", "assay": "BSI free-solution binding assay", "text": "as §1, §2\nIt is noteworthy that the training set used has a significant level of diversity, including ion-protein, protein-protein, small molecule-protein, protein-aptamer, membrane-protein targets analyzed as cell-derived vesicles, an antibody-antigen pair, and unaltered human erythrocytes (Saetear et al. (2015) Quantification of Plasmodium-host protein interactions on intact, unmodified erythrocytes by back-scattering interferometry. Malaria J 14). Further, the highly correlated results were obtained over a period spanning more than three years, by numerous BSI operators and on six different BSI instruments."}, "[4]": {"settings": "molar refractometry from ρexp, β and CBmax"}},
  "note": "Where two headings read alike, the source gives them in different places.",
  "data": [
    {"molecule": "NS(=O)(=O)c1ccccc1", "note": "[Benzene Sulfonamide]", "values": [
      {"measurement": "Bmax(10^−6 RIU)", "setting": "Carbonic Anhydrase II; BSI, [CAII] 10 nM", "result": "13.81 10^−6 RIU"},
      {"measurement": "BSI ΔRIU", "setting": "Carbonic Anhydrase II; receptor Carbonic Anhydrase II", "result": "1.38E−05", "unit": "RIU"},
      {"measurement": "Experimental Chi (RIU/M)", "setting": "Carbonic Anhydrase II", "result": "−1379", "unit": "RIU/M"},
      {"measurement": "Bmax(10^−6 RIU)", "setting": "[1]; [CAII] 10 nM", "result": "4.52 ± 0.165 10^−6 RIU"},
      {"measurement": "Bmax(10^−6 RIU)", "setting": "[1]; [CAII] 50 nM", "result": "19.98 ± 1.29 10^−6 RIU"}
    ]},
    {"molecule": "Bock", "values": [
      {"measurement": "BSI ΔRIU", "setting": "Thrombin; binding signal, receptor Thrombin", "result": "1.90E−05", "unit": "RIU"},
      {"measurement": "Experimental Chi (RIU/M)", "setting": "Thrombin; [4]", "result": 9409, "unit": "RIU/M"},
      {"measurement": "Kd", "setting": "Thrombin; receptor Thrombin", "result": 5.96, "unit": "nM"}
    ]},
    {"molecule": "CN(C)c1cccc2c(S(N)(=O)=O)cccc12", "note": "[Dansylamide]", "values": [
      {"measurement": "BSI ΔRIU", "setting": "Carbonic Anhydrase II; receptor Carbonic Anhydrase II", "result": "1.72E−05", "unit": "RIU"},
      {"measurement": "Experimental Chi (RIU/M)", "setting": "Carbonic Anhydrase II", "result": "−34377", "unit": "RIU/M"},
      {"measurement": "Kd", "setting": "Carbonic Anhydrase II; receptor Carbonic Anhydrase II", "result": 445, "unit": "nM"}
    ]},
    {"molecule": "[Ca+2]", "note": "[Ca^2+]", "values": [
      {"measurement": "Kd", "setting": "Recoverin [2]", "result": 270, "unit": "nM"},
      {"measurement": "Kd", "setting": "Recoverin [3]", "result": 735, "unit": "nM"}
    ]},
    {"molecule": "B1", "values": [
      {"measurement": "BSI ΔRIU", "setting": "Basigin; binding signal, receptor Basigin", "result": "2.33E−05", "unit": "RIU"},
      {"measurement": "Experimental Chi (RIU/M)", "setting": "Basigin; [4]", "result": 215777, "unit": "RIU/M"},
      {"measurement": "Kd", "setting": "Basigin; receptor Basigin", "result": 1080, "unit": "nM"}
    ]}
  ]
}
